Laboratory results taken from patent US9789096B2, “Methods and compositions for selective and targeted cancer therapy” (Board of Regents of the University of Texas System, priority 2013, dated 2017).
pIC50: −log10 of the molar value. Like-named read-outs stand apart in the source and are kept apart here.

Columns and labels:
H2122 = experiment: Cell viability dose-response, H2122; format: cell-based, human; settings: for pIC50: read-out: toxicity data, H2122; for AC50: NCI-H2122, Table 8; for IC50: NCI-H2122, Tables 3 and 4, read-out: IC50 (uM) vs indicated non-small cell lung cancer cell line H2122
Description: (§1) FIG. 6A. […] Cell viability is plotted vs. compound concentration. Compound was added to cells plated at 15% confluence in 96-well plates in RPMI-1640 media supplemented with 5% Fetal Bovine Serum and 2 mM L-Glutamine. After 4 days of incubation, ATP levels were measured using Cell Titer Glo (Promega). Data are presented as the average of 2 replicates ±SEM.
(§2) Selectivity may be measured by the half maximal inhibitory concentration (IC50), which, as used herein, is a measure of the effectiveness of a compound in killing cells. This quantitative measure indicates how much of a particular compound is needed to kill a particular cell population by half (e.g., as indicated by the amount of ATP). […] The IC50 can be determined by constructing a dose-response curve. The lower the IC50, the higher the potency, and the greater the difference between IC50 values for different cell lines (e.g., sensitive lines vs. insensitive lines, and sensitive lines vs. normal lines) the greater the selectivity. […]
(§3) With this information, we synthesized and tested a series of small molecules derived in conception from the oxalamide and chromone scaffold including N-acyl ureas, as shown in Tables 6-8. Each compound was tested in a 12-point dose-response study starting at 50 micromolar and decreasing in 3-fold increments to sub-nanomolar concentrations, in duplicate. Additionally, one or more additional cell line was tested in the same way.

H1819 = experiment: Cell viability dose-response, H1819; format: cell-based, human; settings: for AC50: NCI-H1819, Table 8
Description: as §1, §2, §3

[1] = Homo sapiens, NCI-H2122, 12-point dose-response starting at 50 micromolar, 3-fold increments, in duplicate
[2] = Homo sapiens, NCI-H1819, 12-point dose-response starting at 50 micromolar, 3-fold increments, in duplicate, read-out: toxicity data, H1819
[3] = Homo sapiens, 12-point dose-response starting at 50 micromolar

Structure (SMILES) | pIC50 (H2122; [1]) | pIC50 (H1819; [2]) | IC50 (H2122; Homo sapiens) | further results
C#CCOc1ccc(CCNC(=O)C(=O)Nc2ccc(C(=O)c3ccccc3)cc2)cc1 [SW207038-2-A] | 5.50 | ≤ 4.31 |  | 
O=C(NCc1ccccc1)NCc1ccccc1 [SW208062-1-A] | ≤ 4.31 |  |  | pIC50 (H1819; Homo sapiens, NCI-H1819, read-out: toxicity data, H1819): ≤ 4.31
COc1ccc(CNC(=O)CNc2ccc(Cl)cc2)cc1 [SW208042-1-A] | ≤ 4.31 | ≤ 4.31 |  | 
Cc1ccc(Cc2coc3cc(OCc4cnn(-c5ccccc5)c4)ccc3c2=O)cc1 [SW209190-1] |  |  |  | AC50 (H2122; [3]): 0.092 µM; AC50 (H1819; [3]): 49.5 µM
COc1ccc(CCNC(=O)C(=O)Nc2ccc(Cl)c(Cl)c2)cc1 [SW206960-1] | 6.31 | ≤ 4.31 |  | 
COc1ccc(CCNC(=O)C(=O)Nc2ccccc2OC)cc1 [SW027954-2-A] | ≤ 4.31 | ≤ 4.31 |  | 
COc1ccc(CCNC(=O)NCc2ccccc2)cc1 [SW208043-2-A] | ≤ 4.31 | ≤ 4.31 |  | 
COc1ccc(CCNC(=O)C(=O)NCc2ccc(Cl)cc2)cc1 [SW208025-1-A] | ≤ 4.31 | ≤ 4.31 |  | 
COc1ccc(CCNC(=O)C(=O)Nc2ccc(Br)cn2)cc1 [SW208128-1-A] | 6.54 | ≤ 4.31 |  | 
O=c1c(Cc2ccc(C(F)(F)F)cc2)coc2cc(OCc3cnn(-c4ccccc4)c3)ccc12 [SW209185-1] |  |  |  | AC50 (H2122; [3]): 0.085 µM; AC50 (H1819; [3]): 28.6 µM
COc1ccc(CCNC(=O)C(=O)Nc2cc(Cl)cc(Cl)c2)cc1 [SW206891-2] |  |  |  | pIC50 (H2122; 12-point dose-response starting at 50 micromolar, 3-fold increments, in duplicate): ≤ 4.31; pIC50 (H1819; 12-point dose-response starting at 50 micromolar, 3-fold increments, in duplicate, read-out: toxicity data, H1819): ≤ 4.31
COc1cccc(CCNC(=O)C(=O)Nc2ccc(Cl)cc2C)c1 [SW206965-1] | ≤ 4.31 | ≤ 4.31 |  | 
COc1ccc(CNC(=O)C(=O)NCc2ccc(Cl)cc2)cc1 [SW208026-1-A] | ≤ 4.31 | ≤ 4.31 |  | 
COc1ccc(CCNC(=O)c2nc3ccccc3[nH]2)cc1 [SW208050-1-A] | ≤ 4.31 | ≤ 4.31 |  | 
COc1ccc(CCNC(=O)C(=O)Nc2cc(F)ccc2C)cc1 [SW206879-1-A] | ≤ 4.31 | ≤ 4.31 |  | 
COc1ccc(CCNC(=O)C(=O)Nc2ccccn2)cc1 [SW208122-1-A] | 4.35 | ≤ 4.31 |  | 
O=C(NCCc1ccc(F)cc1)C(=O)Nc1ccc(Cl)cc1 [SW208039-1-A] | 4.32 | ≤ 4.31 |  | 

Structure (SMILES) | pIC50 (H2122; [1]) | pIC50 (H1819; [2]) | IC50 (H2122; Homo sapiens) | further results
COc1ccc(CCNC(=O)C(=O)Nc2cccc(Br)n2)cc1 [SW208126-1-A] | ≤ 4.31 | ≤ 4.31 |  | 
COc1ccc(CCNC(=O)C(=O)Nc2ccc(OC)cc2C)cc1 [SW206968-1] | ≤ 4.31 | ≤ 4.31 |  | 
COc1ccc2nc(NC(=O)c3ccc(C(O)c4ccccc4)cc3)sc2c1 (stereo not shown) [SW207003] |  |  | 0.006 µM | 
COc1ccc(CCNC(=O)C(=O)Nc2cc(C)ccc2Cl)cc1 [SW206867-1-A] | ≤ 4.31 | ≤ 4.31 |  | 
COc1ccc(CCNC(=O)C(=O)Nc2ccc(Cl)c(Br)c2)cc1 [SW206954-1] | 6.06 | ≤ 4.31 |  | 
COc1ccc2nc(NC(=O)c3ccc(N=[N+]=[N-])cc3)sc2c1 [SW203728] |  |  | 0.12 µM | 
COc1ccc2nc(NC(=O)c3ccc(C(O)c4ccncc4)cc3)sc2c1 (stereo not shown) [SW203735] |  |  | 0.036 µM | 
COc1ccc2nc(NC(=O)c3ccc(Nc4ccccc4)cc3)sc2c1 [SW203670] |  |  | 0.108 µM | 
COc1ccc2nc(NC(=O)c3ccc(C(=O)N4CCN(C)CC4)cc3)sc2c1 [SW203669] |  |  | ≥ 49.5 µM | 
COc1ccc2nc(NC(=O)c3ccc(C(=O)N4CCOCC4)cc3)sc2c1 [SW203731] |  |  | 2.28 µM | 
C#CCOc1ccc(CCNC(=O)C(=O)Nc2ccc(C(=O)c3ccccc3)cc2)cc1 [SW207038] |  |  |  | pIC50 (H2122; Homo sapiens, NCI-H2122, cell prints its own unit, 12-point dose-response starting at 50 micromolar): < 6.00
COc1ccc2nc(NS(=O)(=O)c3ccc4c(c3)OCCO4)sc2c1 [SW202748] |  |  |  | IC50 (H1819; Homo sapiens, NCI-H1819, Tables 3 and 4, read-out: IC50 (uM) vs indicated non-small cell lung cancer cell line H1819): 69 µM
COc1ccc2nc(NC(=O)c3ccc(C(=O)N4CCCCC4)cc3)sc2c1 [SW203730] |  |  | 0.845 µM | 
COc1ccc2nc(NC(=O)c3ccc(C(=O)NCc4ccccc4)cc3)sc2c1 [SW203732] |  |  | 0.013 µM | 
C#CCOc1ccc2nc(NC(=O)c3ccc(C(=O)c4ccccc4)cc3)sc2c1 [SW202868] |  |  | 0.005 µM | 
COc1ccc(Nc2ccc(C(=O)Nc3nc4ccc(OC)cc4s3)cc2)cc1 [SW203671] |  |  | 0.314 µM | 
COc1ccc2nc(NC(=O)c3ccc(C(=O)c4ccccn4)cc3)sc2c1 [SW203727] |  |  | 0.016 µM | 
